Experimental data reported in PMC9814838, “The orphan nuclear receptor Nurr1 is responsive to non-steroidal anti-inflammatory drugs” (Communications Chemistry, 2020).
Entries after “also recorded” stand apart in the source; their conditions may differ.

Legend:
Nurr1 = molecular target: T1, Nurr1 (Homo sapiens, UniProt P43354); assay: Gal4-Nurr1 hybrid reporter gene assay in HEK293T cells; type: cell-based; conditions: for Nurr1 activity 10μM (mean fold activation) / Nurr1 activity 30μM (mean fold activation): primary screen, n ≥ 2, ^# not significant vs VP16 control
T1 construct: Nurr1 (uniprot entry: hNURR1–P43354, residues 360–598); expressed in transfected cells; host or cells: HEK293T
T1 sequence (P43354 360-598): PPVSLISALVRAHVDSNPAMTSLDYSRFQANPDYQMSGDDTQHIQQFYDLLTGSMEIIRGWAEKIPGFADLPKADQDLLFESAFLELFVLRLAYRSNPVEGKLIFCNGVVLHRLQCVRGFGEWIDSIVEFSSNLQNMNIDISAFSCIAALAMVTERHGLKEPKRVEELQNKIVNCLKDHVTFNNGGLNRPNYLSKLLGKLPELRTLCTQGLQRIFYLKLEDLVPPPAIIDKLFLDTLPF

Nur77 = molecular target: T2, Nur77 (Homo sapiens, UniProt P22736); assay: Gal4-Nur77 hybrid reporter gene assay in HEK293T cells; type: cell-based; conditions: primary screen, n ≥ 2, ^# not significant vs VP16 control
T2 construct: Nur77 (uniprot entry: hNUR77–P22736, residues 358–598); expressed in transfected cells; host or cells: HEK293T
T2 sequence (P22736 358-598): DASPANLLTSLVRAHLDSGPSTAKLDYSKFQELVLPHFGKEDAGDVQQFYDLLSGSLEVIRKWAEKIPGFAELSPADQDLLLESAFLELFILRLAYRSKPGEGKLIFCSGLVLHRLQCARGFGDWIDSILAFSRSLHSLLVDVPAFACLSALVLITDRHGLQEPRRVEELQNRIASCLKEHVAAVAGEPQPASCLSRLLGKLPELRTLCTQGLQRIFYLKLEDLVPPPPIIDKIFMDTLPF

NOR1 = molecular target: T3, NOR1 (Homo sapiens, UniProt Q92570); assay: Gal4-NOR1 hybrid reporter gene assay in HEK293T cells; type: cell-based; conditions: primary screen, n ≥ 2, ^# not significant vs VP16 control
T3 construct: NOR1 (isoform alpha; uniprot entry: hNOR1–Q92570-1, residues 393–626); expressed in transfected cells; host or cells: HEK293T
T3 sequence (Q92570 393-626): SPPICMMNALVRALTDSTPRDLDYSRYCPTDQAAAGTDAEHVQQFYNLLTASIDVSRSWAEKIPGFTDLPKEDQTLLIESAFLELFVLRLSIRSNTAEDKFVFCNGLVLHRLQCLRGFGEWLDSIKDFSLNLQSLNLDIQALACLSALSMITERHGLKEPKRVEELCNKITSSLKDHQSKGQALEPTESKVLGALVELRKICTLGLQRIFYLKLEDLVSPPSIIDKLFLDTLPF

Gal4-VP16 = molecular target: T4, Gal4-VP16 (Human herpesvirus 1, UniProt P06492); type: cell-based; conditions: n ≥ 4
T4 construct: host or cells: HEK293T

NBRE: Nurr1 monomer = molecular target: T5, NBRE: Nurr1 monomer (Homo sapiens, UniProt P43354); assay: Full-length Nurr1 reporter gene assay on NBRE response element; type: cell-based; conditions: full-length human Nurr1; HEK293T; mean ± SD
T5 construct: the activity of full-length human Nurr1 in cellular settings; host or cells: HEK293T
T5 sequence (P43354 whole entry): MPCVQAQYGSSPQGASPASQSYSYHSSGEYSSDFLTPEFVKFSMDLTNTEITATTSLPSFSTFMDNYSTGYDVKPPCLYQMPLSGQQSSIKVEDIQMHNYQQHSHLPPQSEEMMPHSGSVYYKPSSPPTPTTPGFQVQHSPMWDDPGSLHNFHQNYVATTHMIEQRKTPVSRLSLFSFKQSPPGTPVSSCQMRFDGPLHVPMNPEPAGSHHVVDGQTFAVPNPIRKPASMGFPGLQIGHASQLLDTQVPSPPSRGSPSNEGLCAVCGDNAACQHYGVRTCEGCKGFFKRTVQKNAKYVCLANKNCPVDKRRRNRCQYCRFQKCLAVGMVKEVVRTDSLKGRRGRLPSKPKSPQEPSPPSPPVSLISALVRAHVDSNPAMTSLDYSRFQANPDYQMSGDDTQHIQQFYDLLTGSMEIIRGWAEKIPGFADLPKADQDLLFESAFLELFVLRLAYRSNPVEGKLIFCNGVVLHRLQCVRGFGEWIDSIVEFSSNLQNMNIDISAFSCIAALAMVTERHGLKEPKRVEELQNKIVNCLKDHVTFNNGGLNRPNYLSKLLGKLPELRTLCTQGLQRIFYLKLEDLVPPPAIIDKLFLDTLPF

NurRE: Nurr1 homodimer = molecular target: T6, NurRE: Nurr1 homodimer (Homo sapiens, UniProt P43354); assay: Full-length Nurr1 reporter gene assay on NurRE response element; type: cell-based; conditions: full-length human Nurr1; HEK293T; mean ± SD
T6 construct: the activity of full-length human Nurr1 in cellular settings; host or cells: HEK293T
T6 sequence (P43354 whole entry): as above

[1] = molecular target: T7, DR5: Nurr1–RXRα heterodimer (Homo sapiens, UniProt P43354); assay: Full-length Nurr1 reporter gene assay on DR5 response element; type: cell-based; conditions: full-length human Nurr1 and RXRα overexpressed; HEK293T; mean ± SD
T7 construct: the activity of full-length human Nurr1 in cellular settings; host or cells: HEK293T
T7 sequence (P43354 whole entry, one chain of several): as the sequence (P43354 whole entry) above

Nurr1 LBD homodimer = molecular target: T8, Nurr1 LBD homodimer (Homo sapiens, UniProt P43354); assay: Nurr1 homodimerization HTRF (GFP-Nurr1 LBD vs Tb-labeled Nurr1 LBD); type: biochemical; conditions: cell-free; ligand 100 µM
T8 construct: Nurr1 (uniprot entry: P43354-1, residues 364–598); MBP-Asn10 linker (N, cleaved yes); His8-Tag (N, cleaved yes); His10-Tag (N, cleaved yes); made in house; host or cells: E. coli T7 express (with pGro7)
T8 sequence (P43354 364-598): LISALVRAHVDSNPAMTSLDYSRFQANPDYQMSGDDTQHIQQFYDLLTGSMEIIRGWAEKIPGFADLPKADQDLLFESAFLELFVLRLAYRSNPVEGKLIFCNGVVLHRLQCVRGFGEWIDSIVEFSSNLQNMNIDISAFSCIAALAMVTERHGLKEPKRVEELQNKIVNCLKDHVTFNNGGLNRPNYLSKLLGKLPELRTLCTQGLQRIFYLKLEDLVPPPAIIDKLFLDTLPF
Description: Strength and modulation of the formation of the heterodimer composed of the LBDs of Nurr1 and RXRα was investigated by titration of GFP-RXRα LBD against a fixed concentration of Nurr1 LBD. Assay solutions were prepared in HTRF assay buffer supplemented with 0.1% (w/v) CHAPS as well as 1% DMSO with test compounds at 100 µM or DMSO alone as negative control. […] Free GFP was added to keep the total GFP content stable at 4 µM throughout the entire series in order to suppress artefacts from changes in degree of diffusion enhanced FRET. Samples were equilibrated at RT for 2 h before FI520 and FI620 were recorded after excitation at 340 nm, and the HTRF signal was calculated as described above.

Nurr1–NCoR-1 interaction = molecular target: T9, Nurr1–NCoR-1 interaction (Homo sapiens, UniProt P43354); assay: Nurr1–NCoR-1 interaction HTRF (GFP-Nurr1 LBD titrated against Tb-labeled NCoR-1); type: biochemical; conditions: cell-free; ligand fixed at 100 µM
T9 construct: Nurr1 (uniprot entry: P43354-1, residues 364–598); His10-Tag (N, cleaved yes); made in house; host or cells: E. coli T7 express (with pGro7)
T9 sequence (P43354 364-598): as above
Description: Since ligand concentration was fixed in this setting, interference with the HTRF system is less prone to generate potential artifacts.
To maintain a constant GFP concentration, free GFP protein was added to the dilution series. The experiments were performed in HTRF assay buffer (150 mM KF, 25 mM HEPES pH 7.5 (KOH), 5% (w/v) Glycerol, supplemented with 0.1% (w/v) CHAPS and 5 mM DTT) with 1% DMSO in an assay volume of 20 µl. After 1 h incubation at RT, fluorescence intensities after excitation at 340 nm were recorded at 520 nm for GFP acceptor fluorescence and 620 nm for Tb-SA donor fluorescence and the HTRF signal was calculated as described above.

## CC(C(=O)O)c1ccc(C(=O)c2ccccc2)s1 (centres unmarked) [tiaprofenic acid]
Nurr1
  Nurr1 activity 10μM (mean fold activation): 1.52 fold
  Nurr1 activity 30μM (mean fold activation): 1.46 fold
Nurr1; 10 or 30 µM
  Nurr1-dependent reporter activity in primary screen (fold activation): > 1.5 fold
Nur77
  Nur77 activity 10μM (mean fold activation): 1.35 fold
  Nur77 activity 30μM (mean fold activation): 1.38 fold
NOR1
  Nor1 activity 10μM (mean fold activation): 1.37 fold
  Nor1 activity 30μM (mean fold activation): 1.42 fold
Gal4-VP16
  Control experiments on Gal4-VP16 (non-specific reporter effects): non-specific activity

## CCN(CC)CCCC(C)Nc1ccnc2cc(Cl)ccc12 (centres unmarked) [CQ, chloroquine]
Nurr1; HEK293T, mean ± SD, n≥3
  EC50: 47 µM
NBRE: Nurr1 monomer
  EC50: 38 µM
NurRE: Nurr1 homodimer
  EC50: 54 µM
[1]
  EC50: 57 µM
Nurr1 LBD homodimer
  Homodimerization (effect of ligand): promoted homodimerization; also recorded: Promotes dimerization
Nurr1–NCoR-1 interaction
  NCoR-1 affinity (effect of ligand): promoted the Nurr1–NCoR-1 interaction; also recorded: Enhances affinity

## CC(C(=O)O)c1cccc(Oc2ccccc2)c1 (centres unmarked) [fenoprofen]
Nurr1
  Nurr1 activity 10μM (mean fold activation): 1.00 fold
  Nurr1 activity 30μM (mean fold activation): 0.91 fold
Nur77
  Nur77 activity 10μM (mean fold activation): 0.99 fold
  Nur77 activity 30μM (mean fold activation): 0.86 fold
NOR1
  Nor1 activity 10μM (mean fold activation): 1.01 fold
  Nor1 activity 30μM (mean fold activation): 0.81 fold

## O=C(O)c1ccccc1O [salicylic acid]
Nurr1
  Nurr1 activity 10μM (mean fold activation): 1.08 fold
  Nurr1 activity 30μM (mean fold activation): 1.02 fold
Nur77
  Nur77 activity 10μM (mean fold activation): 1.06 fold
  Nur77 activity 30μM (mean fold activation): 1.02 fold
NOR1
  Nor1 activity 10μM (mean fold activation): 1.01 fold
  Nor1 activity 30μM (mean fold activation): 0.99 fold

## COc1ccc2cc(CCC(C)=O)ccc2c1 [nabumeton]
Nurr1
  Nurr1 activity 10μM (mean fold activation): 1.44 fold
  Nurr1 activity 30μM (mean fold activation): 1.46 fold
Nur77
  Nur77 activity 10μM (mean fold activation): 1.57 fold
  Nur77 activity 30μM (mean fold activation): 1.44 fold
NOR1
  Nor1 activity 10μM (mean fold activation): 1.69 fold
  Nor1 activity 30μM (mean fold activation): 1.74 fold

## COc1ccc2cc([C@H](C)C(=O)O)ccc2c1 [naproxen]
Nurr1
  Nurr1 activity 10μM (mean fold activation): 1.14 fold
  Nurr1 activity 30μM (mean fold activation): 1.15 fold
Nur77
  Nur77 activity 10μM (mean fold activation): 0.99 fold
  Nur77 activity 30μM (mean fold activation): 1.07 fold
NOR1
  Nor1 activity 10μM (mean fold activation): 1.09 fold
  Nor1 activity 30μM (mean fold activation): 1.09 fold

## CN1C(C(=O)Nc2ccccn2)=C(O)c2sccc2S1(=O)=O [tenoxicam]
Nurr1
  Nurr1 activity 10μM (mean fold activation): 1.04 fold
  Nurr1 activity 30μM (mean fold activation): 0.99 fold
Nur77
  Nur77 activity 10μM (mean fold activation): 0.98 fold
  Nur77 activity 30μM (mean fold activation): 0.98 fold
NOR1
  Nor1 activity 10μM (mean fold activation): 0.95 fold
  Nor1 activity 30μM (mean fold activation): 0.90 fold

## CC(C(=O)O)c1ccc2c(c1)CC(=O)c1ccccc1S2 (centres unmarked) [zaltoprofen]
Nurr1
  Nurr1 activity 10μM (mean fold activation): 0.97 fold
  Nurr1 activity 30μM (mean fold activation): 0.94 fold
Nur77
  Nur77 activity 10μM (mean fold activation): 0.80 fold
  Nur77 activity 30μM (mean fold activation): 0.84 fold
NOR1
  Nor1 activity 10μM (mean fold activation): 0.89 fold
  Nor1 activity 30μM (mean fold activation): 0.84 fold

## CS(=O)(=O)Nc1ccc([N+](=O)[O-])cc1Oc1ccccc1 [nimesulid]
Nurr1
  Nurr1 activity 10μM (mean fold activation): 1.00 fold
  Nurr1 activity 30μM (mean fold activation): 0.89 fold
Nur77
  Nur77 activity 10μM (mean fold activation): 0.90 fold
  Nur77 activity 30μM (mean fold activation): toxic
NOR1
  Nor1 activity 10μM (mean fold activation): 0.91 fold
  Nor1 activity 30μM (mean fold activation): 0.84 fold

## CCc1cccc2c3c([nH]c12)C(CC)(CC(=O)O)OCC3 (centres unmarked) [etodolac]
Nurr1
  Nurr1 activity 10μM (mean fold activation): 1.06 fold
  Nurr1 activity 30μM (mean fold activation): 0.93 fold
Nur77
  Nur77 activity 10μM (mean fold activation): 0.85 fold
  Nur77 activity 30μM (mean fold activation): 0.90 fold
NOR1
  Nor1 activity 10μM (mean fold activation): 0.95 fold
  Nor1 activity 30μM (mean fold activation): 0.91 fold
